Experiments:
Assay type in all cases: in vivo
[1] = system: Lolium rigidum (LOLRI); test: Herbicidal pre-emergence action, 1280 g/ha (Table A5); details: visual grading after ca. 3 weeks vs untreated controls
In short: (§1)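 Percent herbicidal damage relative to untreated plants (0% = as control, 100% = plants dead) was graded visually about 3 weeks after treatment under greenhouse conditions. The pre-emergence application went onto the soil surface over sown seeds, as aqueous WP/EC suspension or emulsion at 600 L/ha plus 0.5% additive.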

[2] = system: Veronica persica (VERPE); test: Herbicidal post-emergence action, 320 g/ha, VERPE; details: visual grading after ca. 3 weeks
In short: (§2)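 Visual herbicidal scoring (0% = like control, 100% = plants died) was done about 3 weeks after treatment, with plants kept in the greenhouse. Treatment was a 320 g/ha spray of WP or EC aqueous preparations with 0.5% additive, at a water volume of 600 L/ha. Plants were at the single-leaf stage, 2–3 weeks post-sowing in sandy loam.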

[3] = system: Abutilon theophrasti (ABUTH); test: Herbicidal post-emergence action, 320 g/ha, ABUTH; details: visual grading after ca. 3 weeks
In short: as §2

[4] = system: Matricaria inodora (MATIN); test: Herbicidal pre-emergence action, 1280 g/ha (Table A6); details: visual grading after ca. 3 weeks vs untreated controls
In short: as §1

[5] = system: Amaranthus retroflexus (AMARE); test: Herbicidal pre-emergence action, 1280 g/ha (Table A11); details: visual grading after ca. 3 weeks vs untreated controls
In short: as §1

[6] = system: Kochia scoparia (KCHSC); test: Herbicidal post-emergence action, 1280 g/ha (Table B4); details: visual assessment after ca. 3 weeks vs untreated controls
In short: (§3)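 Post-emergence greenhouse pot test: weeds in sandy loam sprayed at single-leaf stage, 2–3 weeks after sowing, with WP or EC formulations plus 0.5% additive at 600 L water/ha. Effect scored visually ca. 3 weeks later versus untreated controls, 0% = as control, 100% = plants dead.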

[7] = system: Abutilon theophrasti (ABUTH); test: Herbicidal post-emergence action, 1280 g/ha (Table B1); details: visual assessment after ca. 3 weeks vs untreated controls
In short: as §3

[8] = system: Poa annua (POAAN); test: Herbicidal pre-emergence action, 1280 g/ha (Table A7); details: visual grading after ca. 3 weeks vs untreated controls
In short: as §1

[9] = system: Matricaria inodora (MATIN); test: Herbicidal post-emergence action, 1280 g/ha (Table B6); details: visual assessment after ca. 3 weeks vs untreated controls
In short: as §3

[10] = system: Echinochloa crus-galli (ECHCG); test: Herbicidal post-emergence action, 1280 g/ha (Table B3); details: visual assessment after ca. 3 weeks vs untreated controls
In short: as §3

[11] = system: Stellaria media (STEME); test: Herbicidal post-emergence action, 320 g/ha, STEME; details: visual grading after ca. 3 weeks
In short: as §2

[12] = system: Stellaria media (STEME); test: Herbicidal post-emergence action, 1280 g/ha (Table B9); details: visual assessment after ca. 3 weeks vs untreated controls
In short: as §3

[13] = system: Lolium rigidum (LOLRI); test: Herbicidal post-emergence action, 1280 g/ha (Table B5); details: visual assessment after ca. 3 weeks vs untreated controls
In short: as §3

[14] = system: Stellaria media (STEME); test: Herbicidal pre-emergence action, 1280 g/ha (Table A9); details: visual grading after ca. 3 weeks vs untreated controls
In short: as §1

[15] = system: Amaranthus retroflexus (AMARE); test: Herbicidal post-emergence action, 1280 g/ha, AMARE; details: visual grading vs untreated controls
In short: (§4)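 Pot-grown weeds in sandy loam sprayed post-emergence at the single-leaf stage, 2–3 weeks after sowing, with WP or EC formulations plus 0.5% additive in 600 L water/ha at 1280 g/ha. After ca. 3 weeks in the greenhouse, damage scored visually as % effect versus untreated controls (100% = plants dead).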

[16] = system: Matricaria inodora (MATIN); test: Herbicidal post-emergence action, 320 g/ha, MATIN; details: visual grading after ca. 3 weeks
In short: as §2

[17] = system: Amaranthus retroflexus (AMARE); test: Herbicidal post-emergence action, 320 g/ha, AMARE; details: visual grading after ca. 3 weeks
In short: as §2

[18] = system: Veronica persica (VERPE); test: Herbicidal post-emergence action, 1280 g/ha, VERPE; details: visual grading vs untreated controls
In short: as §4

[19] = system: Kochia scoparia (KCHSC); test: Herbicidal post-emergence action, 320 g/ha, KCHSC; details: visual grading after ca. 3 weeks
In short: as §2

[20] = system: Poa annua (POAAN); test: Herbicidal post-emergence action, 1280 g/ha (Table B7); details: visual assessment after ca. 3 weeks vs untreated controls
Description: Seeds of mono- and dicotyledonous weed plants were sown in plastic pots (double sowings with one species of mono- and one species of dicotyledonous weed plants per pot), in sandy loam, covered with soil and grown under controlled growth conditions. 2 to 3 weeks after sowing, the test plants were sprayed in the single-leaf stage. The compounds according to the invention, formulated in the form of wettable powders (WP) or as emulsifiable concentrates (EC), were sprayed onto the green plant parts as an aqueous suspension or as an emulsion, with the addition of 0.5% of an additive, at an application rate of 600 litres of water per hectare (converted). The test plants were placed in the greenhouse for ca. 3 weeks under optimum growth conditions, and then the effect of the preparations was assessed visually in comparison with untreated controls (herbicidal effect in percent (%): 100% effect=plants have died, 0% effect=as control plants). Tables B1 to B11 below, show the effects of selected compounds of the general formula (I) according to Table 1 on various harmful plants using an application rate corresponding to 1280 g/ha obtained by the experimental procedure mentioned above.

CCOC(=O)Oc1c(C)nn(C)c(=O)c1Oc1ccccc1Cl [Example I-010]
100%: herbicidal effect LOLRI [1] | herbicidal effect MATIN [4] | herbicidal effect KCHSC [6] | herbicidal effect ABUTH [7] | herbicidal effect MATIN [9] | herbicidal effect STEME [11] | herbicidal effect STEME [12] | herbicidal effect LOLRI [13] | herbicidal effect AMARE [15] | herbicidal effect MATIN [16] | herbicidal effect AMARE [17] | herbicidal effect KCHSC [19] | herbicidal effect POAAN [20]
90%: herbicidal effect VERPE [2] | herbicidal effect ABUTH [3] | herbicidal effect AMARE [5] | herbicidal effect POAAN [8] | herbicidal effect ECHCG [10] | herbicidal effect STEME [14] | herbicidal effect VERPE [18]

Reference: patent US20240239755A1, “SUBSTITUTED PYRIDAZINONES, SALTS OR N-OXIDES THEREOF AND THEIR USE AS HERBICIDALLY ACTIVE SUBSTANCES” (Bayer Aktiengesellschaft, priority 2021, published 2024)
